In patent US4031219A, “Bis-homophthalimides and salts thereof” (Boehringer Ingelheim GmbH, priority 1975, dated 1977):
Converted amounts (≈) assume the structure as drawn. Read-outs that look alike come from different tables or passages of the source.

Assays:
[1] = tested on: chloroform-induced ventricular fibrillation in mice; experiment: Antiarrhythmic activity against chloroform-induced ventricular fibrillation in mice; type: in vivo; conditions: Mus musculus, iv, 1 minute before inducing ventricular fibrillation; male mice 20-25 gm; read-out: ED50 (dose which reduces the number of animals which show fibrillations by 50%)
Experimental: 2. Antiarrhythmic activity against chloroform-induced ventricular fibrillation in mice
Upon putting a mouse into a chloroform-saturated atmosphere, the animal is anaesthetized after 40 seconds, the spontaneous respiration stops, and after 20 seconds more, gasping respiration is seen.
During 1 minute after opening the thorax spontaneous ventricular fibrillation can be obtained in nearly all the animals or can be induced in others by touching the heart with tweezers.
Pretreatment with antiarrhythmic compounds reduces the number of animals which show fibrillations in a dose-dependent way. The dose which reduces the number of animals by 50% (ED50) is calculated by means of dose-response-curves, and the standard error is determined [Miller, L.C. and Tainter, M.L., Proc. Soc. Exp. Biol. Med. 57, 261 (1944)].
The tests were performed on male mice having a body weight of 20-25 gm. Each dose was tested on 10 animals.
The compounds were administered intravenously 1 minute before inducing ventricular fibrillation.

[2] = tested on: isolated electrically stimulated left auricle of the guinea pig; experiment: Effect on the effective refractory period of the isolated electrically stimulated left auricle of the guinea pig (maximum driving frequency); conditions: Cavia porcellus, Tyrode solution 37° C, mean change 5 and 10 minutes after addition, graphically determined from dose-response-curves, read-out: EC50 (concentration which reduces the maximum driving frequency by 50%)
Experimental: 1. Effect on the effective refractory period of the isolated electrically stimulated left auricle of the guinea pig
Guinea pigs of both sexes were killed by a blow on the neck. After opening the thorax, the heart was quickly removed and transferred to a Tyrode solution (37° C). The auricles were therein dissected, and only the left auricles were used. Electrical stimulation was performed by a Grass Stimulator, S4G, with square wave impulses of 1 millisecond duration and a stimulation voltage of 12 V. The auricles were suspended in Tyrode solution at 37° C containing NaCl: 136.8 mval/liter; KCl: 2.68 mval/liter; MgCl2 : 0.2625 mval/liter; NaH2 PO4 : 0.417 mval/liter; NaHCO3 : 11.9 mval/liter; CaCl2 : 1.8 mval/liter; glucose: 3 gm. The solution was continuously oxygenated with 98% O2 and 2% CO2. The isometric contractions were measured with a force-displacement transducer and recorded on a Grass-polygraph (P5).
The auricles were stimulated with 0.5 Hz. The maximum driving frequency was measured by increasing the stimulation rate every 10 seconds by 1 Hz. Measurements were performed three times every 5 minutes before and 5 and 10 minutes after the addition of the test compound. During the rest periods between the measurements the stimulation frequency was 0.5 Hz.
The effect of the compound was calculated as the mean change of maximum driving frequency 5 and 10 minutes after adding the compound. The compound was tested by increasing the concentration to obtain dose-response-curves and to calculate the EC50.
The maximum driving frequency is measured by increasing the stimulation rate. When the interval between two stimuli is shortened, a stimulation rate is reached at which every second stimulation falls into the refractory period of the foregoing contraction and will not be answered with a contraction. Thus, the maximum driving frequency is a measure for the effective refractory period. Compounds which reduce the maximum driving frequency prolong the refractory period.
From the dose-response-curves the following concentrations, which reduce the maximum driving frequency by 50%, were graphically determined: […]

[3] = Acute toxicity in mice; conditions: mouse, in vivo, observation time: 14 days
Experimental: The acute toxicity of the test compounds was determined in mice (observation time: 14 days) after oral and/or intravenous application. The LD50 was calculated from the percentage of animals which died within the observation time after administration of various doses [see J. Pharmacol. exp. Therap. 96, 99 (1949)].

[4] = intravenous, read-out: LD50 i.v.

Compound	ED50 [1]	EC50 [2]	LD50 at 336 h [3, 4]	LD50 at 336 h ([3]; oral, read-out: LD50 p.o.)
CN(CCCN1C(=O)c2ccccc2C(C)(C)C1=O)CCCN1C(=O)c2ccccc2C(C)(C)C1=O [A, n,n-bis-[3-(3,4-dihydro-4,4-dimethyl-1,3-dioxo-2-(1H)-isoquinolyl)-propyl]-methylamine]	1.2 mg/kg	5.5 µg/mL (≈ 11.2 µM)	–	–
CC1(C)C(=O)N(CCCCNCCCN2C(=O)c3ccccc3C(C)(C)C2=O)C(=O)c2ccccc21 [H, [3-(3,4-dihydro-4,4-dimethyl-1,3-dioxo-2(1H)-isoquinolyl)-propyl]-[4-(3,4-dihydro-4,4-dimethyl-1,3-dioxo-2(1H)-isoquinolyl)-butyl]-amine]	3 mg/kg	10 µg/mL (≈ 20.4 µM)	–	–
CN(CCN1C(=O)c2ccccc2C(C)(C)C1=O)CCN1C(=O)c2ccccc2C(C)(C)C1=O [F, n,n-bis-[2-(3,4-dihydro-4,4-dimethyl-1,3-dioxo-2(1H)-isoquinolyl)-ethyl]-methylamine]	4.6 mg/kg	–	–	–
CC1(C)C(=O)N(CCCCNCCN2C(=O)c3ccccc3C(C)(C)C2=O)C(=O)c2ccccc21 [J, [2-(3,4-dihydro-4,4-dimethyl-1,3-dioxo-2(1H)-isoquinolyl)-ethyl]-[4-(3,4-dihydro-4,4-dimethyl-1,3-dioxo-2(1H)-isoquinolyl)-butyl]-amine]	2.8 mg/kg	1.8 µg/mL (≈ 3.78 µM)	10.5 mg/kg	210 mg/kg
CC1(C)C(=O)N(CCCNCCCN2C(=O)c3ccccc3C(C)(C)C2=O)C(=O)c2ccccc21 [B, N,N-bis-[3-(3,4-dihydro-4,4-dimethyl-1,3-dioxo-2(1H)-isoquinolyl)propyl]-amine]	2.5 mg/kg	8 µg/mL (≈ 16.8 µM)	–	123 mg/kg
CC1(C)C(=O)N(CCCNCCN2C(=O)c3ccccc3C(C)(C)C2=O)C(=O)c2ccccc21 [G, n-[2-(3,4-dihydro-4,4-dimethyl-1,3-dioxo-2(1H)-isoquinolyl)-ethyl]-N-[3-(3,4-dihydro-4,4-dimethyl-1,3-dioxo-2(1H)-isoquinolyl)-propyl]-amine]	4.7 mg/kg	2.7 µg/mL (≈ 5.85 µM)	–	–
CC1(C)C(=O)N(CCNCCN2C(=O)c3ccccc3C(C)(C)C2=O)C(=O)c2ccccc21 [I, bis-[2-(3,4-dihydro-4,4-dimethyl-1,3-dioxo-2(1H)-isoquinolyl)-ethyl]-amine]	4.7 mg/kg	2.2 µg/mL (≈ 4.92 µM)	15 mg/kg	315 mg/kg
COc1ccc2c(c1)C(=O)N(CCN(C)CCCN1C(=O)c3ccccc3C(C)(C)C1=O)C(=O)C2(C)C [D, n-[2-(3,4-dihydro-7-methoxy-4,4-dimethyl-1,3-dioxo-2-(1H)-isoquinolyl)-ethyl]-N-[3-(3,4-dihydro-4,4-dimethyl-1,3-dioxo-2(1H)-isoquinolyl)-propyl]-methylamine]	3.6 mg/kg	4.2 µg/mL (≈ 8.31 µM)	–	–
CCN(CCCN1C(=O)c2ccccc2C(C)(C)C1=O)CCCN1C(=O)c2ccccc2C(C)(C)C1=O [C, n,n-bis-[3-(3,4-dihydro-4,4-dimethyl-1,3-dioxo-2(1H)-isoquinolyl)-propyl]-ethylamine]	0.5 mg/kg	2 µg/mL (≈ 3.97 µM)	–	–
